Experimental data published in publication PMC2939770 (Bioorganic & Medicinal Chemistry, 2010).

Assays:
[1] = target: T1, T. brucei 6PGDH (Trypanosoma brucei brucei, UniProt P31072); assay: biochemical
T1 sequence (P31072 1-479): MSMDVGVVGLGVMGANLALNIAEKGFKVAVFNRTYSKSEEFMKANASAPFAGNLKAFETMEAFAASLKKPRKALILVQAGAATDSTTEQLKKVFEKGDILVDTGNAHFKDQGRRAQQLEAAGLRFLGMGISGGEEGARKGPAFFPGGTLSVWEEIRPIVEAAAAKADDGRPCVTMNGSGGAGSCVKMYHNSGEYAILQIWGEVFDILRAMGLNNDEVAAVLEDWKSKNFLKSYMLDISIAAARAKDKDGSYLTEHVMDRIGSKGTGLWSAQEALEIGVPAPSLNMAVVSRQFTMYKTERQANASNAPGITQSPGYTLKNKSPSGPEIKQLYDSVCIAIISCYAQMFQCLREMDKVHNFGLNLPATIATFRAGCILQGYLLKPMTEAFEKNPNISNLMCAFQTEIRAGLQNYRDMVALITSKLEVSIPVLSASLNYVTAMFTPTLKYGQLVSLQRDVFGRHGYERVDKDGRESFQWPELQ
Description: (§1) Inhibition studies involved a reaction in 50 mM triethanolamine pH 7.0, 2 mM MgCl2. NADPH and 6PG were each at 20 μM. Total reaction volume was 1 ml. The reaction was followed in a Perkin Elmer UV–vis spectrophotometer. Compounds were dissolved in DMSO and initially added at 200 μM, then 50 μM.

[2] = target: T1, T. brucei 6PGDH; conditions: for Hill slope: slope of the IC50 curve, recombinant Tb6PGDH; for Ligand efficiency: −RTLn(IC50)/HAC, HAC: heavy atom count; for confirmation of enzyme inhibition on re-test: second round, repurchased hits of the first screening
Description: as §1

[3] = system: 6PGDH; set-up: method as in PMID 9307279; conditions: might bind to the cofactor binding site; cited from earlier work

| Compound | IC50 [1] [µM] | Hill slope [2] | Ligand efficiency [2] | confirmation of enzyme inhibition on re-test [2] | inhibition of 6PGDH [3] |
| --- | --- | --- | --- | --- | --- |
| Cc1c(C(=O)O)[nH]c(-c2[nH]c(C(=O)O)c(C)c2C)c1C [Compound 14] | 114 ± 27 | 1.4 | 0.27 (kcal/mol)/HAC | – | – |
| O=C(O)c1cc(Cl)c(Cl)[nH]1 [Compound 18] | 42 ± 3.7 | 2.1 | 0.60 (kcal/mol)/HAC | – | – |
| O=C1C=C(S(=O)(=O)[O-])c2ccccc2C1=O.[K+] [Compound 16] | – | 4.8 | – | – | – |
| N#C/C(=C\c1ccc([N+](=O)[O-])o1)C(=O)O [Compound 17] | 5.8 ± 0.6 | 2.0 | 0.48 (kcal/mol)/HAC | – | – |
| NC(CS(=O)(=O)O)C(=O)O (centres unmarked) [Compound 10] | – | – | – | did not confirm the previous reported activity | – |
| NC(=O)c1ccc(N)nc1 [6-aminonicotinamide] | – | – | – | – | potential inhibitor of 6PGDH |
| NC(=O)N1CCCC1C(=O)O (centres unmarked) [Compound 4] | – | – | – | did not confirm the previous reported activity | – |
| O=C(O)C(=Cc1ccc([N+](=O)[O-])o1)C(=O)O [Compound 15] | 56 ± 6 | 5.2 | 0.36 (kcal/mol)/HAC | – | – |
| Cc1c(C(=O)O)oc2c1C(=O)CSC2 [Compound 12] | 51 ± 3 | 1.7 | 0.42 (kcal/mol)/HAC | – | – |
| O=C1CC(S(=O)(=O)[O-])c2ccccc2/C1=N/O.[Na+] (centres unmarked) [Compound 11] | 73 ± 9 | 1.4 | 0.33 (kcal/mol)/HAC | – | – |
| O=C(O)c1cc(Cl)c[nH]1 [Compound 2] | 43 ± 9 | 1.8 | 0.66 (kcal/mol)/HAC | – | – |
| Cc1oc([N+](=O)[O-])cc1C(=O)O [Compound 3] | 28 ± 6 | 1.5 | 0.52 (kcal/mol)/HAC | – | – |
| CCOC(=O)c1[nH]c(C(=O)O)c(C)c1C [Compound 1] | 45 ± 11 | 1.6 | 0.40 (kcal/mol)/HAC | – | – |
| NC(C(=O)O)c1ccsc1 (centres unmarked) [Compound 5] | – | – | – | did not confirm the previous reported activity | – |
| O=C(O)c1cc2sccc2[nH]1 [Compound 13] | 42 ± 7 | 1.1 | 0.54 (kcal/mol)/HAC | – | – |
